ChEMBL document CHEMBL1146286, “Synthesis of carbon-11 labeled sulfonanilide analogues as new potential PET agents for imaging of aromatase in breast cancer” (Bioorg Med Chem Lett, 2007)
The source made the active and inactive calls. The rule behind the calls is not given here.

What was measured:
[1] = target: T1, Prostaglandin G/H synthase 2 (Homo sapiens) (UniProt P35354); test: Inhibition of COX2
T1 sequence (whole entry): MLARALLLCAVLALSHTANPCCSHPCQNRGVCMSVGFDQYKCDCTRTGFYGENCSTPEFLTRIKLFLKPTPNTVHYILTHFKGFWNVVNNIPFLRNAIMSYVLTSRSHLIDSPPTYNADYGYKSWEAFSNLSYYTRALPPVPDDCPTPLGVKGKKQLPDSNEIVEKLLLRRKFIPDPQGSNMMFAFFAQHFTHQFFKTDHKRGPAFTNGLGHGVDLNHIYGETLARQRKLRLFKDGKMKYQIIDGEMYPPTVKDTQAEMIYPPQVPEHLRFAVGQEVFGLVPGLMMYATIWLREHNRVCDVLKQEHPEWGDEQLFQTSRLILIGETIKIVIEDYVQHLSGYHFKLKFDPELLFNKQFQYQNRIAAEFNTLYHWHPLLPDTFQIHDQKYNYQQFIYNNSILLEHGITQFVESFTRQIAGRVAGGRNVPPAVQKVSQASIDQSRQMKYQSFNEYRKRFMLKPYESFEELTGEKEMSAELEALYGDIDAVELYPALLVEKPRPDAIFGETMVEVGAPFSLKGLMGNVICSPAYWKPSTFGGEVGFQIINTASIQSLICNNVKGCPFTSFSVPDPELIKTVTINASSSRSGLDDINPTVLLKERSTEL

[2] = tested on: SK-BR-3; test: Cytotoxicity against human SK-BR-3 cells after 24 hrs by MTT assay relative to NS398; type: functional, cell-based; conditions: SK-BR-3, 24 h

CCCOc1cc([N+](=O)[O-])ccc1N(C)S(C)(=O)=O
Activity [1]: inactive | IC50 [2]: 1240 nM

CCC(CC)Oc1cc([N+](=O)[O-])ccc1N(C)S(C)(=O)=O
Activity [1]: inactive | IC50 [2]: 840 nM

CN(c1ccc([N+](=O)[O-])cc1OC1CCCC1)S(C)(=O)=O
Activity [1]: inactive | IC50 [2]: 1090 nM

CN(c1ccc([N+](=O)[O-])cc1OC1CCCCC1)S(C)(=O)=O
Activity [1]: inactive | IC50 [2]: 660 nM

CN(c1ccc([N+](=O)[O-])cc1OCCC1CCCCC1)S(C)(=O)=O
Activity [1]: inactive | IC50 [2]: 2540 nM

CS(=O)(=O)Nc1ccc([N+](=O)[O-])cc1OC1CCCCC1 [NS-398]
IC50 [2]: 720 nM

CC(C)Oc1cc([N+](=O)[O-])ccc1N(C)S(C)(=O)=O
Activity [1]: inactive | IC50 [2]: 1790 nM
